Measured values published in the NIST ThermoML archive (doi:10.1016/j.tca.2015.09.001).

Test: molar heat capacity at constant pressure
Conditions: 101.33 kPa, Crystal, Small sample (50 mg) DSC

c12c3c4c5c1c1c6c7c2c2c8c3c3c9c4c4c%10c5c5c1c1c6c6c%11c7c2c2c7c8c3c3c8c9c4c4c9c%10c5c5c1c1c6c6c%11c2c2c7c3c3c8c4c4c9c5c1c1c6c2c3c41 [buckminsterfullerene]
Conditions	molar heat capacity at constant pressure [J/K/mol]
298.15 K	535.8
300 K	538.6
350 K	648.1
400 K	742
450 K	830.1
500 K	917.4
